Measurements from patent publication US5770687A, “Comformationally constrained backbone cyclized somatostatin analogs” (Peptor Limited, priority 1996, dated 1998).
pIC50: −log10 of the molar value. Like-named read-outs stand apart in the source and are kept apart here. Values belong to the molecule of their own block, whether it stands above or below them. Peptide text beside a SMILES is read from it.

Columns and labels:
[1] = In vitro biostability in human serum (HPLC); assay type: in vitro ADME; settings: 37° C.
Method: Analogs are tested for stability by their resistance to enzymatic degradation by incubation in serum or in tissue homogenate, separation of the proteins and recording of the peptide peaks by HPLC before and after incubation. […] These peaks are separated and characterized by mass spectrometry, N-terminal sequence and comparison to purified peptide peaks.
The assay was based on HPLC determination of peptide degradation as a function of time in serum at 37° C.

Lack of toxicity in rats = assay type: in vivo, rat; settings: for respiratory disturbances, stereotyped behavior, muscle tone: rats observed for 4 hours post administration
Method: PTR 3013 was not toxic to the rats even with doses of 4 mg/kg. These two doses are several orders of magnitude higher than those needed to elicit the desired endocrine effect. The peptides dissolved in saline produced no untoward side effects on the central nervous system, cardiovascular system, body temperature, nor on the periphery of the animals.

rat SSTR-5 [2] = molecular target: T1, rat SSTR-5 (Rattus norvegicus, UniProt P30938); assay: Radioligand binding, inhibition of 125I-Tyr11-SRIF binding to cloned rat SSTR-5
T1 sequence (P30938 1-363): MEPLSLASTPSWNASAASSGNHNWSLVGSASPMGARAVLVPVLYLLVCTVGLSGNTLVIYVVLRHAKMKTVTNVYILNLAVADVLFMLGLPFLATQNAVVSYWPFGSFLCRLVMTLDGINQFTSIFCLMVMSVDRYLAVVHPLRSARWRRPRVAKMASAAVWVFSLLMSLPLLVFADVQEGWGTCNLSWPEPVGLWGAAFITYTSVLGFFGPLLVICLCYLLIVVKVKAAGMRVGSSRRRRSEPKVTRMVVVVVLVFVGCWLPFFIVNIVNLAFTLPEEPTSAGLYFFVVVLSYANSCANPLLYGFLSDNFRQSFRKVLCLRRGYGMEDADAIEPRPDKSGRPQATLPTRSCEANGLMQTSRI
Method: (§1) The somatostatin analogs were tested for their potency in inhibition of the binding of ^125 I-Tyr^11 -SRIF (based on the method described by Raynor et. al., Molecular Pharmacology 43, 838-844, 1993) to membrane preparations expressing the transmembranal somatostatin receptors (SSTR-1,2,3,4 or 5). The receptor preparations used for these tests were either from the cloned receptors selectively and stably expressed in Chinese Hamster Ovary (CHO) cells or from cell lines naturally expressing the SSTRs. […] The binding reactions were filtered, the filters were washed and the bound radioactivity was counted in gamma counter. […] In order to validate positive signals of the binding tests, and to eliminate non-specific signals, samples of irrelevant peptides, such as GnRH, that were synthesized and handled using the same procedures, were tested in the same assays as negative control samples.

SSTR-3 = SSTR-3 (Homo sapiens, UniProt P32745); assay: Radioligand binding, inhibition of 125I-Tyr11-SRIF binding to cloned SSTR-3
Sequence of SSTR-3 (P32745 whole entry, species assumed): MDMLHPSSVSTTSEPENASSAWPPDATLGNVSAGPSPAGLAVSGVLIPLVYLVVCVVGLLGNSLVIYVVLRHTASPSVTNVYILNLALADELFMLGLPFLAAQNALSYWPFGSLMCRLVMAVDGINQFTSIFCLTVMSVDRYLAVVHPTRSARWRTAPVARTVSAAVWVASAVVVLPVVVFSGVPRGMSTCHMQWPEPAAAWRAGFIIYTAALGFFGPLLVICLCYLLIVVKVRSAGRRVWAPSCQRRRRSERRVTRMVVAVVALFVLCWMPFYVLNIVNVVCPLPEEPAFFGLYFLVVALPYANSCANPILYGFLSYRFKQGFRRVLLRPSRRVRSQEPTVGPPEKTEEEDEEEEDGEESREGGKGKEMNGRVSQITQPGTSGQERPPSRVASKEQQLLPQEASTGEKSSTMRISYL
Method: as §1

SSTR-2 = assay: Radioligand binding, inhibition of 125I-Tyr11-SRIF binding to cloned SSTR-2
Method: as §1

rat SSTR-5 [3] = molecular target: T1, rat SSTR-5; settings: Table 22; known SST analogs, literature values; read-out: IC50 value rSSTR 5; cited from earlier work
plasma lipase release = assay: Bombesin stimulated plasma lipase release in rats; assay type: in vivo, rat
Method: (§2) Inhibition of either insulin or amylase release has been reported (Reisine and Bell, ibid.) to be highly correlated with affinity to the SST receptor subtype SSTR-5, while i inhibition of pituitary growth hormone (GH) release, pancreatic glucagon, and gastric acid secretion were SSTR-2 mediated. […] These doses were compared to the synthetic analog SMS-201 995 administered at a dose of 10 μg/kg.
(§3) Male Wister rats (weighing 200-220 g) were anaesthetized with pentobarbital (60 mg/kg) by the intraperitoneal (IP) route. The animals were allowed free access to food and water until 18 h before experiment, when all food (but not the water) was withdrawn. Furthermore the animals were housed in cages with wide mesh wire bottoms to prevent coprophagia (feeding on excrement).
(§4) After cannulation, a 0.7 ml sample of blood was drawn from the jugular vein, and transferred into an Eppendorf tube containing 20 IU heparin solution 5000 IU/ml. One minute later the peptides were administered subcutaneously (SC in 0.2 ml of 0.9% NaCl). Control rats were pretreated with 0.2 ml of 0.9% NaCl. At time 0 (5 min. after collection of baseline blood sample-1) a bombesin infusion (50 nmol/kg/hr) was started in all animals. Additional blood samples were collected at constant time intervals of 60, 90 and 120 min. during bombesin infusion.
(§5) Blood samples were collected into ice-cold tubes containing heparin (20 IU/ml) and were centrifuged (1500 g×10 min.). Plasma samples were frozen and kept at -20° C. until assayed for amylase and lipase.
Lipase levels were measured in plasma with a commercial kit (Randox™).

plasma amylase release = assay: Bombesin stimulated plasma amylase release in rats; assay type: in vivo, rat
Method: as §2, §3, §4, §5
Amylase levels were measured in plasma with the commercial (Raichem™) Amylase reagent.

[4] = tested on: Growth Hormone (GH) release; assay: Inhibition of growth hormone release in rats; assay type: in vivo, rat; settings: Sprague-Dawley male rats, 10 mg/kg subcutaneously, versus saline
Method: In vivo determination of the pharmacodynamic properties of cyclic peptide SST analogs was carried out in rats, according to known procedures. Inhibition of Growth Hormone (GH) release as a result of peptide administration was measured in Sprague-Dawley male rats. […] Time course profiles for GH release under constant experimental conditions were measured.
Adult male Sprague-Dawley rats, specific pathogen free (SPF), weighing 200-350 g, were maintained on a constant light-dark cycle (light from 8:00 to 20:00 h), temperature (21±3° C.), and relative humidity (55±10%). Laboratory chow and tap water were available ad libitum. On the day of the experiment, rats were anesthetized with pentobarbitone (50 mg/kg). […] A single blood sample (0.6 ml) was taken from the exposed cannulated jugular vein for the determination of the basal GH levels (-15 min.). Immediately thereafter the appropriate peptide treatment was administered. […] A physiological saline solution (0.9% NaCl) was administered as a control. All peptides were administered subcutaneously in a final volume of 0.2 ml. Further sampling was carried out at 15, 30, 60, and 90 minutes after peptide administration. […]
Rat growth hormone (rGH) [^125 I] levels were determined by means of a radioimmunoassay kit (Amersham). […] All samples were measured in duplicate.

insulin release = assay: Glucose induced insulin release in rats; assay type: in vivo, rat
human SSTR-5 = human SSTR-5 (Homo sapiens, UniProt P35346); assay: Radioligand binding, inhibition of 125I-Tyr11-SRIF binding to cloned human SSTR-5; settings: cloned human receptor
Sequence of human SSTR-5 (P35346 whole entry): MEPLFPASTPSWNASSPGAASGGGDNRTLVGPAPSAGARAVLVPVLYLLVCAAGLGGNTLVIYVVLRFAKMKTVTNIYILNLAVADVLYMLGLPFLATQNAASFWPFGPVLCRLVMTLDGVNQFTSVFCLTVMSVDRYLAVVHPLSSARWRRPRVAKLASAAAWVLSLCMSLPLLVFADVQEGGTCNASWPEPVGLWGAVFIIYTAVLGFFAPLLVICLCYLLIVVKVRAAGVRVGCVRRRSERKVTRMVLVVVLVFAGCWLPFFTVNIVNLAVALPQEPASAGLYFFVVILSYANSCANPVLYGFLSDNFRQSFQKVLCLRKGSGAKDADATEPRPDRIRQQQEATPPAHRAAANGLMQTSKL
Method: as §1

[5] = tested on: somatostatin receptors (SSTR-1,2,3,4 or 5); assay: Radioligand binding assay, negative control peptides; settings: irrelevant peptides tested in the same assays
Method: as §1

[6] = Table 21, inhibition of iodinated SRIF-14 binding, CHO cells, tested at 10^-6, 10^-7, 10^-8 M, read-out: IC50 SSTR-2

Molecule: C[C@@H](O)[C@H](NC(=O)CN1CCNC(=O)CCN(C(=O)[C@H](N)Cc2ccccc2)CC(=O)N[C@@H](Cc2ccccc2)C(=O)N[C@H](Cc2c[nH]c3ccccc23)C(=O)N[C@@H](CCCCN)C(=O)N[C@@H]([C@@H](C)O)C1=O)C(N)=O [PTR 3002] (HELM PEPTIDE1{[dF].[O=C(CN(CCC(=O)[*:3])[*:1])[*:2]].F.[dW].K.T.[O=C(CN(CCN[*:3])[*:1])[*:2]].T.[am]}$PEPTIDE1,PEPTIDE1,2:R3-7:R3$$$V2.0)
in vitro biostability (peptide degradation as a function of time) [1]: as stable as Octreotide, is more stable than the corresponding non-cyclic structure, and is much more stable than SRIF

Molecule: C[C@@H](O)[C@H](NC(=O)CN1CCCNC(=O)CCN(C(=O)[C@H](N)Cc2ccccc2)CC(=O)N[C@@H](Cc2ccccc2)C(=O)N[C@H](Cc2c[nH]c3ccccc23)C(=O)N[C@@H](CCCCN)C(=O)N[C@@H]([C@@H](C)O)C1=O)C(N)=O [PTR 3007] (HELM PEPTIDE1{[dF].[O=C(CN(CCC(=O)[*:3])[*:1])[*:2]].F.[dW].K.T.[O=C(CN(CCCN[*:3])[*:1])[*:2]].T.[am]}$PEPTIDE1,PEPTIDE1,2:R3-7:R3$$$V2.0)
respiratory disturbances, stereotyped behavior, muscle tone (Lack of toxicity in rats): no respiratory disturbances
pIC50 (rat SSTR-5 [2]): < 5.70
pIC50 (SSTR-3): < 5.00

pIC50 (SSTR-2; [6]): < 5.00
Molecule: C[C@@H](O)[C@H](NC(=O)[C@H](Cc1ccccc1)NC(=O)CN1CCNC(=O)CCN(C(=O)[C@H](N)Cc2ccccc2)CC(=O)N[C@@H](Cc2ccccc2)C(=O)N[C@H](Cc2c[nH]c3ccccc23)C(=O)N[C@@H](CCCCN)C1=O)C(N)=O [PTR 3019] (HELM PEPTIDE1{[dF].[O=C(CN(CCC(=O)[*:3])[*:1])[*:2]].F.[dW].K.[O=C(CN(CCN[*:3])[*:1])[*:2]].F.T.[am]}$PEPTIDE1,PEPTIDE1,2:R3-6:R3$$$V2.0)

pIC50 (rat SSTR-5 [2]): < 5.70
pIC50 (SSTR-3): < 5.00
Molecule: C[C@@H](O)[C@H](NC(=O)CN1CCCNC(=O)CN(C(=O)[C@H](N)Cc2ccccc2)CC(=O)N[C@@H](Cc2ccccc2)C(=O)N[C@H](Cc2c[nH]c3ccccc23)C(=O)N[C@@H](CCCCN)C(=O)N[C@@H]([C@@H](C)O)C1=O)C(N)=O [PTR 3004]

Molecule: CC(=O)N1CCCNC(=O)CCN(CC(=O)N[C@@H](Cc2ccccc2)C(=O)N[C@H](C(N)=O)[C@@H](C)O)C(=O)[C@H](CCCCN)NC(=O)[C@@H](Cc2c[nH]c3ccccc23)NC(=O)[C@H](Cc2ccccc2)NC(=O)C1 [PTR 3013] (HELM PEPTIDE1{[ac].[O=C(CN(CCCN[*:3])[*:1])[*:2]].F.[dW].K.[O=C(CN(CCC(=O)[*:3])[*:1])[*:2]].F.T.[am]}$PEPTIDE1,PEPTIDE1,2:R3-6:R3$$$V2.0)
respiratory disturbances, stereotyped behavior, muscle tone (Lack of toxicity in rats): no respiratory disturbances
toxicity (Lack of toxicity in rats; rats, doses of 4 mg/kg): not toxic
pIC50 (SSTR-2; [6]): < 5.00

Molecule: DPhe^5 -cyclo(Cys^6 -Tyr^7 -DTrp^8 -Lys^9 -Val^10 -Cys^11)-Trp^12 -NH2 [RC-160]
pIC50 (rat SSTR-5 [3]): 9.70

affinity to human SSTR-5, in words (human SSTR-5): high affinity
binding to SSTR-2, in words (SSTR-2): does not bind
pIC50 (SSTR-2; [6]): 6.30
pIC50 (SSTR-2; text summary of Example 85 binding data, read-out: affinity to SSTR-2): < 6.00
Molecule: CC(C)[C@@H]1NC(=O)[C@H](CCCCN)NC(=O)[C@@H](Cc2c[nH]c3ccccc23)NC(=O)[C@H](Cc2ccc(O)cc2)NC(=O)[C@H](Cc2ccccc2)NCCNC(=O)CCCN([C@@H](Cc2ccccc2)C(=O)N[C@H](C(N)=O)[C@@H](C)O)C1=O [PTR 3046, cyclo(PheN2^6 -Tyr^7 -DTrp^8 -Lys^9 -Val^10 -PheC3^11)-Thr^12 -NH2] (HELM PEPTIDE1{[O=C([C@H](Cc1ccccc1)NCCN[*:3])[*:2]].Y.[dW].K.V.[O=C([C@H](Cc1ccccc1)N(CCCC(=O)[*:3])[*:1])[*:2]].T.[am]}$PEPTIDE1,PEPTIDE1,1:R3-6:R3$$$V2.0)
inhibition of bombesin-stimulated lipase secretion (plasma lipase release; 3 μg/kg SC, 90 min.): 33%
inhibition of bombesin-stimulated lipase secretion (plasma lipase release; 3 μg/kg SC, 120 min.): 26%
inhibition of bombesin-stimulated lipase secretion (plasma lipase release; 12.5 μg/kg SC, 90 min.): 30%
inhibition of bombesin-stimulated lipase secretion (plasma lipase release; 12.5 μg/kg SC, 120 min.): 25%
inhibition of bombesin-stimulated lipase secretion (plasma lipase release; 25 μg/kg SC, 90 min.): 51%
inhibition of bombesin-stimulated lipase secretion (plasma lipase release; 25 μg/kg SC, 120 min.): 35%
inhibition of bombesin induced release of plasma amylase (plasma amylase release; 3 μg/kg SC, 90 min.): 31%
inhibition of bombesin induced release of plasma amylase (plasma amylase release; 3 μg/kg SC, 120 min.): 23%
inhibition of bombesin induced release of plasma amylase (plasma amylase release; 25 μg/kg SC, 90 min.): 60%
inhibition of bombesin induced release of plasma amylase (plasma amylase release; 25 μg/kg SC, 120 min.): 52%
inhibition of growth hormone release [4]: not significantly different from saline
decrease in insulin release (insulin release; Wister rats, 7 μg/kg subcutaneously, glucose 0.5 g/kg IV, versus control rats, p<0.05): 43%
potency on insulin release relative to Octreotide (insulin release; in vivo, from present study and manufacturer's ED 50 of Octreotide): 4 times

Molecule: C[C@@H](O)[C@@H]1NC(=O)[C@H](CCCCN)NC(=O)[C@@H](Cc2c[nH]c3ccccc23)NC(=O)[C@H](Cc2ccccc2)NC(=O)[C@@H](NC(=O)[C@H](N)Cc2ccccc2)CSSC[C@@H](C(=O)N[C@H](CO)[C@@H](C)O)NC1=O [Octreotide, DPhe^5 -cyclo(Cys^6 -Phe^7 -DTrp^5 -Lys^9 -Thr^10 -Cys^11)-Thr^12 -ol]
pIC50 (rat SSTR-5 [3]): 9.70

binding activity of negative control samples [5]: no binding activity
Molecule: GnRH: irrelevant peptide tested as negative control sample
